Patent US6355269B1, “Oral compositions of levosimendan” (Orion Corporation, priority 1997, dated 2002)

Key:
[1] = Pharmacokinetic study of levosimendan capsules, single oral dose, in healthy volunteers; format: in vivo, human; settings: from oral compositions comprising substantially pure crystalline polymorphic form I
Description: Pharmacokinetic parameters of two different polymorphs, (I) and (II), of levosimendan in healthy volunteers after a single oral dose of 2 mg of levosimendan capsule was studied. The formulations of hard gelatin capsules (size 3) A and B were the following:
The small value of Tmax indicates rapid absorption of the drug into plasma.

[2] = tested on: intestinal bacteria; settings: oral administration; by intestinal bacteria; cited from earlier work
[3] = tested on: troponin; settings: racemic mixture; cited from earlier work

Structure (SMILES) | dissolution and absorption into plasma [1] | metabolization in the lower gastrointestinal tract [2] | calcium dependent binding to troponin [3]
CC1CC(=O)NN=C1c1ccc(NN=C(C#N)C#N)cc1 (single isomer, unassigned; (-)) [levosimendan, (−)-[[4-(1,4,5,6-tetrahydro-4-methyl-6-oxo-3-pyridazinyl)phenyl]hydrazono]propanedinitrile] | rapidly dissolved and absorbed into plasma | susceptible to metabolization in the lower gastrointestinal tract by intestinal bacteria | 
CC1CC(=O)NN=C1c1ccc(NN=C(C#N)C#N)cc1 (racemic) [compound (I), [[4-(1,4,5,6-tetrahydro-4-methyl-6-oxo-3-pyridazinyl)phenyl]hydrazono]propanedinitrile] |  |  | significant calcium dependent binding to troponin
